Results reported in patent publication US20110011310A1, “METHOD OF MANUFACTURING A COMPOSITE BASED ON COMPLEXES OF CONTROLLED STABILITY” (UNIVERSITE DE NICE SOPHIA-ANTIPOLIS, priority 2007, published 2011).

Experiment: Thermogravimetry of the temperature of decomposition of indigo (FIGS. 3 and 6)
Format: physicochemical
Description: […] This peak is offset to around 540° C. when the mixture has been heated at 18 (unheated), 120, 180, 280 and 350° C. during production of the composite.
In addition, during the step of cleaning by heating at temperatures of 18 (unheated), 180, 280 and 320° C. for 20 minutes, a peak characteristic of the presence of indigo in the external medium is observed, as these molecules begin to decompose at 280° C. with a maximum rate at 340° C. This phenomenon is possible owing to surface interactions between the indigo and the sepiolite, which reduce the temperature of decomposition of the indigo, which in a pure product begins at 300° C. with a maximum at 390° C. However, this peak disappears after the cleaning by heating at 350° C. for 20 minutes. […] Also, at 520° C., a peak characteristic of the presence of indigo in the sepiolite tunnels is observed. This cleaning by heating step in this type of preparation enables only the molecules present in the tunnels to be preserved.

temperature of maximum rate of decomposition of indigo (indigo in the external medium of 23% indigo/sepiolite mixtures): 340 °C
temperature at which decomposition of indigo begins (indigo in the external medium of 23% indigo/sepiolite mixtures (surface interactions with sepiolite)): 280 °C
temperature of the thermogravimetric peak of indigo (indigo in the sepiolite tunnels of 23% indigo/sepiolite mixtures (FIG. 6)): around 520 °C
maximum temperature of decomposition of indigo (indigo incorporated in the sepiolite tunnels (FIG. 3)): 540 °C
maximum temperature of decomposition of indigo (native indigo (FIG. 3)): around 375 °C
temperature at which decomposition of indigo begins (pure product): 300 °C
temperature of maximum decomposition of indigo (pure product): 390 °C
SMILES: O=C1/C(=C2\Nc3ccccc3C2=O)Nc2ccccc21 [indigo]
